Source: patent publication US20260215412A1, “AGROCHEMICAL FORMULATION” (priority 2023, published 2026)
One block for each compound: values may come before it.

Key:
[1] = Solubility of pydiflumetofen in solvents suitable for emulsion production; assay type: physicochemical
Description: The choice of solvent for an agrochemical EC formulation is important and dependent upon the individual active ingredient that is the solute. In addition, the choice of solvent for an emulsifiable concentrate formulation can have an impact on the physical stability, application properties, and biological performance of the agrochemical formulation. In this case the active ingredient is the fungicide pydiflumetofen or 3-difluoromethyl-1-methyl-1H-pyrazole-4-carboxylic acid methoxy-[1-methyl-2-(2,4,6-trichlorophenyl)-ethyl]-amide to give it its IUPAC name (the name “pydiflumetofen” is used herein interchangeably with the IUPAC name 3-difluoromethyl-1-methyl-1H-pyrazole-4-carboxylic acid methoxy-[1-methyl-2-(2,4,6-trichlorophenyl)-ethyl]-amide).

[2] = Emulsion stability / emulsion quality testing upon dilution; assay type: physicochemical; conditions: for suitability as emulsifier for EC formulations of pydiflumetofen: sole surfactant in the test formulations (solo surfactant screens); for emulsion quality of two-way blends: non-ionic surfactant combined with anionic surfactant B^an in two-way blends
Procedure: Test sample of EC formulations of 3-difluoromethyl-1-methyl-1H-pyrazole-4-carboxylic acid methoxy-[1-methyl-2-(2,4,6-trichlorophenyl)-ethyl]-amide were diluted in standard water samples of known hardness (Table 5) in crow receivers, which were then incubated overnight at 5° C. and 30° C.
Emulsion quality was assessed visually after homogenising the samples through inversion, using a scale of 0 to 5 as shown in Table 7 below.
Further visual assessments were carried out 0.5, 2 and 24 hours post homogenisation and the volume of any cream or oil recorded. After 24 hours, the samples were re-homogenised and number of inversions required for re-emulsification was recorded and the samples were re-incubated at 5 or 30 (as appropriate) and a final visual assessment, including by microscopy was carried out.

Compound: CON(C(=O)c1cn(C)nc1C(F)F)C(C)Cc1c(Cl)cc(Cl)cc1Cl (centres unmarked) [pydiflumetofen, 3-difluoromethyl-1-methyl-1H-pyrazole-4-carboxylic acid methoxy-[1-methyl-2-(2,4,6-trichlorophenyl)-ethyl]-amide]
Solubility of pydiflumetofen at 25° C. % ([1]; solvent Acetophenone): 17.3% | Solubility of pydiflumetofen at 25° C. % ([1]; solvent Dimethyl lactamide): 9.65% | Solubility of pydiflumetofen at 25° C. % ([1]; solvent Dowanol DPM): 3.77% | Solubility of pydiflumetofen at 25° C. % ([1]; solvent Ethyl lactate): 5.74% | Solubility of pydiflumetofen at 25° C. % ([1]; solvent Gamma butyrolactone): 14.7% | Solubility of pydiflumetofen at 25° C. % ([1]; solvent Methyl benzoate): 15.1% | Solubility of pydiflumetofen at 25° C. % ([1]; solvent Octan-1-ol): 0.63% | Solubility of pydiflumetofen at 25° C. % ([1]; solvent Solvesso 200 ND/ULN): 5.85% | Solubility of pydiflumetofen at 25° C. % ([1]; solvent THFA (Tetrahydrofurfuryl acetate)): 9.7% | Solubility of pydiflumetofen at 25° C. % ([1]; solvent Tributyl phosphate): 6.18% | Solubility of pydiflumetofen at 25° C. % ([1]; solvent Triethyl phosphate): 8.82% | Solubility of pydiflumetofen at 25° C. % ([1]; solvent Trimethylcyclohexanone): 10.2%

Compound: Block copolymer of poyhrdroxystearic acid and polyalkylene glycol [C^ni]
suitability as emulsifier for EC formulations of pydiflumetofen [2]: most promising

Compound: POE (11)-synthetic primary C12/C15 alcohol [B^ni]
emulsion quality of two-way blends [2]: better quality emulsions overall | suitability as emulsifier for EC formulations of pydiflumetofen [2]: most promising

The remaining lines, values ahead:

emulsion quality of two-way blends [2]: better quality emulsions overall
Compound: Castor oil ethoxylate [A^ni]

emulsion quality of two-way blends [2]: better quality emulsions overall
Compound: Polyoxyethylene sorbitan monolaurate [D^ni]
